Structures can show the parent of a compound that is named as a salt.
What was measured:
[1] = target: T1, PPARα (Homo sapiens, UniProt Q07869); test: Cross-curve PPAR transactivation test, PPARα; type: cell-based; details: HeLN cells stably transfected with Gal-hPPAR and luciferase reporter; cross curves against reference agonist, Schild regression; n.a means not active; read-out: PPAR alpha Kd app
T1 construct: The reporter is ERE-βGlob-Luc-SV-Neo
T1 sequence (Q07869 200-468 limits assumed): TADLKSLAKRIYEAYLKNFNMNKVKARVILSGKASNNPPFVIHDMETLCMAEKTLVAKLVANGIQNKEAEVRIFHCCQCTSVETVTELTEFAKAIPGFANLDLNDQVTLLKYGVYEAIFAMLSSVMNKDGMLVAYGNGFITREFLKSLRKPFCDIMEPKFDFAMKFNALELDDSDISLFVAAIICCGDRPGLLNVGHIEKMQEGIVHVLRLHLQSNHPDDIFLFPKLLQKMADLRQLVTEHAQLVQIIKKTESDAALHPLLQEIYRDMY
Description: (§1) The activation of the receptors with an agonist (activator) in HeLN cells leads to the expression of a reporter gene, luciferase, which, in the presence of a substrate, generates light. The modulation of the receptors is measured by quantifying the luminescence produced after incubating the cells in the presence of a reference agonist. The ligands displace the agonist from its site. The measurement of the activity is performed by quantifying the light produced. This measurement makes it possible to determine the modulatory activity of the compounds according to the invention by determining the constant that is the affinity of the molecule for the receptor. Since this value can fluctuate depending on the basal activity and the expression of the receptor, it is referred to as Kd apparent (KdApp in nM).
(§2) To determine this constant, “cross curves” of the test product against a reference agonist are produced in a 96-well plate: 10 concentrations of the test product plus a concentration 0 are arranged in a line, and 7 concentrations of the agonist plus a concentration 0 are arranged in a column. This is 88 measurement points for 1 product and 1 receptor. The remaining 8 wells are used for repeatability controls.
(§3) Measurements are also taken for total agonist controls with the same products.
(§4) The HeLN cell lines used are stable transfectants containing the plasmids ERE-βGlob-Luc-SV-Neo (reporter gene) and PPAR (α, δ, γ) Gal-hPPAR. These cells are inoculated into 96-well plates at a rate of 10-000 cells per well in 100 μL of DMEM medium without phenol red and supplemented with 10% of defatted calf serum. The plates are then incubated at 37° C. and 7% CO2 for 16 hours. The various dilutions of the test products and of the reference ligand are added at a rate of 5 μL per well. The plates are then incubated for 18 hours at 37° C. and 7% CO2.
(§5) The culture medium is removed by turning over and 100 μL of a 1:1 PBS/luciferin mixture are added to each well. After 5 minutes, the plates are read by the luminescence detector.

[2] = target: T2, PPARγ (Homo sapiens, UniProt P37231); test: Cross-curve PPAR transactivation test, PPARγ; type: cell-based; details: HeLN cells stably transfected with Gal-hPPAR and luciferase reporter; cross curves against reference agonist, Schild regression; n.a means not active; read-out: PPAR gamma Kd app
T2 construct: The reporter is ERE-βGlob-Luc-SV-Neo
T2 sequence (P37231 238-505 limits assumed): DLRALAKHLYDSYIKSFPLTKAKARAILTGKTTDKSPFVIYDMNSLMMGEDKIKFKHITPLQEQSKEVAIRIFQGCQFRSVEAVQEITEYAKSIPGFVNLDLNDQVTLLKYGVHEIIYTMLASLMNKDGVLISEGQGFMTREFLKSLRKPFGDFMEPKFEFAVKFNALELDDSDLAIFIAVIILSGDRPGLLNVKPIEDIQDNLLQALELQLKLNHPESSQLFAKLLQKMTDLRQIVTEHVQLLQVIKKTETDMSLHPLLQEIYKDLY
Description: as §1, §2, §3, §4, §5

[3] = target: T3, PPARδ (Homo sapiens, UniProt Q03181); test: Cross-curve PPAR transactivation test, PPARδ; type: cell-based; details: HeLN cells stably transfected with Gal-hPPAR and luciferase reporter; cross curves against reference agonist, Schild regression; n.a means not active; read-out: PPARs delta Kd app
T3 construct: The reporter is ERE-βGlob-Luc-SV-Neo
T3 sequence (Q03181 211-441 limits assumed): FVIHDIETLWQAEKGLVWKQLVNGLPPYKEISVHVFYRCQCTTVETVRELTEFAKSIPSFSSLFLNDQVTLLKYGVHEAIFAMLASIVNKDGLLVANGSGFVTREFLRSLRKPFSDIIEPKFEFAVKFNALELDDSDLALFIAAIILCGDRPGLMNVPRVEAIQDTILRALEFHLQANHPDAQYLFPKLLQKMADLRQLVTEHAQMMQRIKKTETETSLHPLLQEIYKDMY
Description: as §1, §2, §3, §4, §5

| Structure (SMILES) | Kd [1] | Kd [2] | Kd [3] | melting point |
| --- | --- | --- | --- | --- |
| CCCCCCCC(=O)N(C)Cc1cccc(-c2ccc(/C=C(\OCC)C(=O)O)cc2)c1 [Compound 1, (Z)-2-ethoxy-3-{3′-[(methyloctanoylamino)methyl]biphenyl-4-yl}acrylic acid] | 2000 nM | 30 nM | – | – |
| CCCCCNC(=O)N(C)c1cccc(-c2ccc(/C=C(\OCC)C(=O)O)cc2)n1 [Compound 3, (Z)-2-ethoxy-3-{4-[6-(1-methyl-3-pentylureido)pyrid-2-yl]phenyl}acrylic acid] | – | 30 nM | – | 162 °C |
| CCCCCCCNC(=O)N(C)c1cccc(-c2ccc(/C=C(\OCC)C(=O)O)cn2)c1 [Compound 4, (Z)-2-ethoxy-3-{6-[3-(3-heptyl-1-methylureido)phenyl]pyrid-3-yl}acrylic acid hydrochloride] | – | 4 nM | – | – |
| CCCCNC(=O)N(C)c1cccc(-c2ccc(/C=C(\OC)C(=O)O)cc2)c1 [Compound 11, (Z)-3-[3′-(3-butyl-1-methylureido)biphenyl-4-yl]-2-methoxyacrylic acid] | – | 4 nM | – | – |
| CO/C(=C\c1ccc(-c2cccc(N(C)C(=O)NC3CCCCC3)c2)cc1)C(=O)O [Compound 15, (Z)-3-[3′-(3-cyclohexyl-1-methylureido)biphenyl-4-yl]-2-methoxyacrylic acid] | – | 8 nM | – | – |
| CCCCOc1cc(/C=C(\C)C(=O)O)ccc1-c1cccc(CN(C)C(=O)c2cccc(OC)c2)c1 [Compound 21, (E)-3-(2-butoxy-3′-{[(3-methoxybenzoyl)methylamino]methyl}biphenyl-4-yl)-2-methylacrylic acid] | – | 30 nM | – | – |
| CCCCOc1cc(/C=C(\CC)C(=O)O)ccc1-c1cccc(CN(C)C(=O)c2ccccc2)c1 [Compound 22, 2-[1-{3′-[(benzoylmethylamino)methyl]-2-butoxybiphenyl-4-yl}meth-(E)-ylidene]butyric acid] | – | 120 nM | – | – |
| CCCCCNC(=O)N(C)c1cccc(-c2ccc(/C=C(\OC)C(=O)O)cc2OCCCC)c1 [Compound 24, (Z)-3-[2-butoxy-3′-(1-methyl-3-pentylureido)biphenyl-4-yl]-2-methoxyacrylic acid] | – | – | – | 61 °C |
| CCCCCCCNC(=O)N(C)c1cccc(-c2ccc(/C=C(\C)C(=O)O)cc2OCCC)c1 [Compound 31, (E)-3-[3′-(3-heptyl-1-methylureido)-2-propoxybiphenyl-4-yl]-2-methylacrylic acid] | – | 2 nM | – | – |
| CCCCCCCNC(=O)N(C)c1cccc(-c2ccc(/C=C(\C)C(=O)O)cc2OCC)c1 [Compound 32, (E)-3-[2-ethoxy-3′-(3-heptyl-1-methylureido)biphenyl-4-yl]-2-methylacrylic acid] | 4000 nM | 1 nM | – | – |

Continued, in another order:

| Kd [1] | Kd [2] | Kd [3] | Structure (SMILES) | melting point |
| --- | --- | --- | --- | --- |
| 1000 nM | 30 nM | – | CCCCCCCNC(=O)N(C)c1cccc(-c2ccc(/C=C(\OCC)C(=O)O)cc2)n1 [Compound 2, (Z)-2-ethoxy-3-{4-[6-(3-heptyl-1-methylureido)pyrid-2-yl]phenyl}acrylic acid] | – |
| – | 2 nM | – | CCCCCCCNC(=O)N(C)c1cccc(-c2ccc(/C=C(\C)C(=O)O)cc2)c1 [Compound 5, (E)-3-[3′-(3-heptyl-1-methylureido)biphenyl-4-yl]-2-methylacrylic acid] | – |
| – | 60 nM | – | CCCCCCCNC(=O)N(C)c1cccc(-c2ccc(/C=C(\F)C(=O)O)cc2)c1 [Compound 6, (Z)-2-fluoro-3-[3′-(3-heptyl-1-methylureido)biphenyl-4-yl]acrylic acid] | – |
| – | 4 nM | – | CCCCCCCNC(=O)N(C)c1cccc(-c2ccc(/C=C(\CC)C(=O)O)cc2)c1 [Compound 7, 2-[1-[3′-(3-heptyl-1-methylureido)biphenyl-4-yl]meth-(E)-ylidene]butyric acid] | – |
| 500 nM | 4 nM | 2000 nM | CCCCCNC(=O)N(C)c1cccc(-c2ccc(/C=C(\CCC)C(=O)O)cc2)c1 [Compound 8, 2-[1-[3′-(1-methyl-3-pentylureido)biphenyl-4-yl]meth-(E)-ylidene]pentanoic acid] | – |
| 2000 nM | 4 nM | 2000 nM | CCCCCNC(=O)N(C)c1cccc(-c2ccc(/C=C(\CC)C(=O)O)cc2)c1 [Compound 9, 2-[1-[3′-(1-methyl-3-pentylureido)biphenyl-4-yl]meth-(E)-ylidene]butyric acid] | – |
| – | 4 nM | – | CCO/C(=C\c1ccc(-c2cccc(N(C)C(=O)NCCc3ccccc3)c2)cc1)C(=O)O [Compound 10, (Z)-2-ethoxy-3-[3′-(1-methyl-3-phenethylureido)biphenyl-4-yl]acrylic acid] | – |
| – | 8 nM | 4000 nM | CCCCCNC(=O)N(C)c1cccc(-c2ccc(/C=C(\OC)C(=O)O)cc2)c1 [Compound 13, (Z)-2-Methoxy-3-[3′-(1-methyl-3-pentylureido)biphenyl-4-yl]acrylic acid] | – |
| – | 60 nM | 4000 nM | COC(=O)/C(=C/c1ccc(-c2cccc(N(C)C(=O)NC3CCCCC3)c2)cc1)OC [Compound 14, Methyl (Z)-3-[3′-(3-cyclohexyl-1-methylureido)biphenyl-4-yl]-2-methoxyacrylate] | – |
| – | 8 nM | – | CO/C(=C\c1ccc(-c2cccc(N(C)C(=O)NCCc3ccccc3)c2)cc1)C(=O)O [Compound 16, (Z)-2-methoxy-3-[3′-(1-methyl-3-phenethylureido)biphenyl-4-yl]acrylic acid] | – |
